Experimental findings from patent publication US20170299609A1, “TREATMENT OF AMYOTROPHIC LATERAL SCLEROSIS WITH SK CHANNEL ACTIVATORS” (Wright State University, priority 2016, published 2017) are described below.

What all share (type): in vivo
Assay [1] relates to G93A high expressor line of transgenic male ALS mice with a B6SJL background. As to the kind of experiment: Survival of transgenic ALS mice, CyPPA given P5 to P20 (Example 1). The settings on record: CyPPA 0.014 μg/kg daily IP for 16 days (P5-P20). Here is the method: (§1) Thus, the effect of SK channel activators on survival and motor function of the G93A high expressor line of transgenic male ALS mice with a B6SJL background (hereinafter, “transgenic ALS mice”) was characterized. The transgenic ALS mice carry a mutation of the superoxide dismutase 1 gene; as a result, the transgenic ALS mice develop a neurodegenerative disease which closely mimics ALS in humans. In this experiment, CyPPA (n=13) or vehicle solution (i.e., saline+11% DMSO, n=12) was administered early to the transgenic ALS mice for sixteen (16) days (between ages P5 and P20) via daily intraperitoneal (i.e., IP) injection. CyPPA was administered at a dose of 0.014 μg/kg in both experiments.
(§2) In this experiment, the effect of CyPPA on survival of the transgenic ALS mice was assessed by determining when the transgenic ALS mice met end point criteria, i.e., full paralysis of both hind limbs and failing to right themselves 30 seconds after being turned on their backs. Additionally, the effect of CyPPA on motor function of the transgenic ALS mice was assessed by daily measuring from the age of P85 to the end stage using the rotarod machine. More specifically, the transgenic ALS mice were placed on a rotating rod for four minutes at a speed of 5 rotations per minute (i.e., RPM). The speed was increased to 25 RPM and the transgenic ALS mice were deemed unable to complete the task if they could complete only five percent (i.e., 12 seconds) of the task (i.e., the end stage). Rotarod performance was assessed to detect onset of symptoms associated with the neurodegenerative disease mimicking ALS in humans in the transgenic ALS mice and/or to monitor disease progression in the transgenic ALS mice, such as, e.g., via characterizing the rate of loss of motor function.

The test system is the same in assay [2]. As to the kind of experiment: Rotarod motor function of transgenic ALS mice, CyPPA given at ALS onset P90 to P96 (Example 2). Particulars: CyPPA 0.014 μg/kg daily IP for 7 days (P90-P96); 92 to 105 and 112 to 119 days of age; FIG. 4. How it is done:
Because symptoms of ALS in the transgenic ALS mice emerge around P90, the effect of administering CyPPA at P90 was characterized. Without being bound by the theory, it is believed that administration of CyPPA in the transgenic ALS mice at ALS onset would correlate to beginning treatment in humans upon diagnosis of ALS. In this experiment, CyPPA (n=14) or vehicle solution (i.e., saline+11% DMSO; n=14) was administered to the transgenic ALS mice for seven (7) days (between ages P90 and P96) via daily IP injection. CyPPA was administered at a dose of 0.014 μg/kg.
as §2, with “stage).” for “stage). Rotarod performance was assessed to detect onset of symptoms associated with the neurodegenerative disease mimicking ALS in humans in the transgenic ALS mice and/or to monitor disease progression in the transgenic ALS mice, such as, e.g., via characterizing the rate of loss of motor function.”
In general terms: In the rotarod test animals must keep their balance on a rotating rod.

The test system is the same in assay [3]. As to the kind of experiment: Rotarod motor function of transgenic ALS mice, CyPPA given P5 to P20 (Example 1). The settings on record: CyPPA 0.014 μg/kg daily IP for 16 days (P5-P20). Here is the method: as §1, §2

Structures are written as SMILES.

For `Cc1cc(NC2CCCCC2)nc(-n2nc(C)cc2C)n1` [CyPPA], the “longer survival relative to control injected with vehicle solution” value in assay [1] came out at 10 days. The “increase in mean survival over control injected with vehicle solution” value in assay [1] (p=0.0063) was roughly 8%. In addition, the mean survival in assay [1] (vehicle 125.76 days, p=0.0063) worked out at 135.72 days. The “average motor function (rotarod completion ratio) versus vehicle control” value in assay [2] was “significantly better”. Besides, the “time able to stay on the rotarod relative to vehicle control” value in assay [3] (122 to 126 days of age, FIG. 3) is on record as “significantly longer”. For the same compound, the “able to complete the rotarod task longer than vehicle-injected mice” value in assay [3] (FIG. 2) worked out at 5 days. In addition, the “reduction of rate of decline in motor function relative to vehicle control” value in assay [3] (FIG. 3, p=0.0017) is given as roughly 40%. Further, in assay [3] (FIG. 3 line A, vehicle slope 0.0349), the “slope of decline in motor function (rotarod percent complete vs days of age)” value was found to be 0.0211.
